From paper PMC6150025, “Novel Mixed-Type Inhibitors of Protein Tyrosine Phosphatase 1B. Kinetic and Computational Studies” (Molecules : A Journal of Synthetic Chemistry and Natural …, 2017)

Target: T1, PTP1B (Homo sapiens, UniProt P18031)
T1 construct: encodes for PTP1B (residues 1–321); inferred from the pET28A vector, NdeI/BamHI cloning and Ni-agarose purification) (N); made in house; host or cells: E. coli BLR
T1 sequence (P18031 1-321): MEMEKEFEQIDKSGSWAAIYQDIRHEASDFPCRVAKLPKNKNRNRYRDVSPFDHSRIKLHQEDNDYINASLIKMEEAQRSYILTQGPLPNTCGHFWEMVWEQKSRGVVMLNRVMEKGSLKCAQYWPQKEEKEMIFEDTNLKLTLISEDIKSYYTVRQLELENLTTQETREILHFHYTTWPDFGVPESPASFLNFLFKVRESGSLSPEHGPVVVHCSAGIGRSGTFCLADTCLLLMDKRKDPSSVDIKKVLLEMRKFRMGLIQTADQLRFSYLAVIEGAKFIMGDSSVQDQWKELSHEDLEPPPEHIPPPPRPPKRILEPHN
Assay: PTP1B enzymatic inhibition assay (pNPP substrate)
Assay type: biochemical
Details: for % Inhibition: Table S1, values marked a: tested at 100 µM due to solubility problems; for Ki: Lineweaver-Burk analysis, mixed type model; for Inhibition Type: Lineweaver-Burk plots; for IC50: curves at different concentration of each compound; for Vmax / Km: from fit of the kinetic data for each inhibitor; for α: mixed type inhibition model; for Km: pNPP
Procedure: The PTP1B activity was measured based on the Goldstein method. The assay was performed with a final reaction volume of 500 µL in HEPES buffer (50 mM HEPES, 1mM DTT, 2 mM EDTA and 150 mM NaCl, pH 7.0), DMSO (10%) and p-nitrophenol phosphate (pNPP) as substrate (50 mM), the reaction was started with the PTP1B (1.5 µg/mL). After 30 min of incubation at 37 °C, the reaction was stopped by the addition of 500 µL of NaOH 5N reading the absorbance at 405 nm. The number of hydrolyzed moles of pNPP was determined using the molar extinction coefficient of the product pNP (18,500 M^−1 cm^−1).
Inhibition assays were performed under the above described conditions, adding to the reaction each one of the molecules at a final concentration of 200 µM. The concentration that inhibits 50% (IC50) of the PTP1B activity was determined through curves at different concentration of each compound, adjusting the data to the equation reported elsewhere. The inhibition type and constant were obtained by the measurement of the initial velocities of hydrolysis varying the substrate concentration in a range of 2–30 µM, in absence or presence of fixed concentrations of each inhibitor. For compound 1 the concentrations used were 3, 6, 10 and 20 µM; in the case of compound 2 were 2, 4, 6, 8, and 10 µM; and for compound 3 were 20, 50, 70 and 90 µM. The experimental data were analyzed through the Lineweaver-Burk plot using the software Sigma Plot V12.3 (Systat Software, Inc., San Jose, CA, USA).

[1] = 200 µM compound, pNPP 50 mM, 30 min, 37 °C

## CC1C(=NO)CC(c2ccc([N+](=O)[O-])cc2)NC1c1ccc([N+](=O)[O-])cc1 (stereo not shown) [3-methyl-2,6-bis(4-nitrophenyl)tetrahydropyridin-4(1H)-one oxime]
Table S1, 200 µM compound
  % Inhibition (200 µM): 54%

## O=S(=O)(c1ccc(NC(=S)Nc2ccc3c(c2)OCO3)cc1)N1CCCCC1 [N-(1,3-benzodioxol-5-yl)-N'-[4-(piperidinosulfonyl)phenyl]thiourea]
Table S1, 200 µM compound
  % Inhibition (200 µM): 32%

## Cc1nc2cc(C(=O)N/N=C/c3ccc([N+](=O)[O-])o3)ccc2[nH]1 [2-methyl-N'-[(E)-(5-nitrofuran-2-yl)methylidene]-1H-benzimidazole-5-carbohydrazide]
  % Inhibition: 54%

## Cc1cc(-c2nn(C)c(=O)c3ccccc23)cc(C)c1OCC(=O)NNC(=O)Nc1ccccc1 [N1-phenyl-2-{2-[2,6-dimethyl-4-(3-methyl-4-oxo-3,4-dihydrophthalazin-1-yl)phenoxy]acetyl}hydrazine-1-carboxamide]
Table S1, 200 µM compound
  % Inhibition (200 µM): 52%

## CSc1nc2cc(C(=O)N/N=C/c3ccc([N+](=O)[O-])o3)ccc2n1C [1-methyl-2-(methylsulfanyl)-N'-[(E)-(5-nitrofuran-2-yl)methylidene]-1H-benzimidazole-5-carbohydrazide]
Table S1, 200 µM compound
  % Inhibition (200 µM): 34%

## O=C(NNS(=O)(=O)c1cc(C(F)(F)F)cc(C(F)(F)F)c1)c1cnn(-c2ccccc2)c1C(F)(F)F [N'1-{[1-phenyl-5-(trifluoromethyl)-1H-pyrazol-4-yl]carbonyl}-3,5-di(trifluoromethyl)benzene-1-sulfonohydrazide]
Table S1, 200 µM compound
  % Inhibition (200 µM): 45%

## COc1cc(C(CC(=O)O)CC(=O)N2CCC(n3cccc3)CC2)cc(OC)c1OC (stereo not shown) [5-oxo-5-[4-(1H-pyrrol-1-yl)piperidino]-3-(3,4,5-trimethoxyphenyl)pentanoic acid]
Table S1, 200 µM compound
  % Inhibition (200 µM): 38%

## Cn1c(SCCn2ccnc2)nc2ccc(Cl)cc21 [6-chloro-2-{[2-(1H-imidazol-1-yl)ethyl]sulfanyl}-1-methyl-1H-benzimidazole]
Table S1, 200 µM compound
  % Inhibition (200 µM): 32%

## COC(=O)c1cccc2nc(Cc3ccc([N+](=O)[O-])cc3)sc12 [methyl 2-[(4-nitrophenyl)methyl]-1,3-benzothiazole-7-carboxylate]
Table S1, 200 µM compound
  % Inhibition (200 µM): 64%

## COC(=O)c1cc(S(=O)(=O)NCC2CN(Cc3ccccc3)CN(Cc3ccccc3)C2)oc1C [methyl 5-({[(1,3-dibenzylhexahydro-5-pyrimidinyl)methyl]amino}sulfonyl)-2-methyl-3-furoate]
Table S1, 200 µM compound
  % Inhibition (200 µM): 50%

## COc1cc(C=NNC(=O)CSCc2c(C)c(C)c(C)c(C)c2C)cc(OC)c1OC [N'1-(3,4,5-trimethoxybenzylidene)-2-[(2,3,4,5,6-pentamethylbenzyl)thio]ethanohydrazide]
Table S1, 200 µM compound
  % Inhibition (200 µM): 63%

## O=C(O)c1ccccc1N1CCOCC1 [2-morpholinobenzoic acid]
Table S1, 200 µM compound
  inhibition at 200 µM: 37%

## COC(=O)c1cc2nc(SCC(=O)Nc3ccc([N+](=O)[O-])cn3)[nH]c2cc1Cl [methyl 6-chloro-2-({2-[(5-nitropyridin-2-yl)amino]-2-oxoethyl}sulfanyl)-1H-benzimidazole-5-carboxylate]
Table S1, 200 µM compound
  % Inhibition (200 µM): 63%

## CSc1nc2cc(Cl)c(C(=O)Nc3nc4cc(Oc5cccc(Cl)c5Cl)c(Cl)cc4[nH]3)cc2n1C [Compound 1, 5-Chloro-N-[6-chloro-5-(2,3-dichlorophenoxy)-1H-benzimidazol-2-yl]-1-methyl-2-(methylthio)-1H-benz-imidazole-6-carboxamide]
[1]
  inhibition at 200 µM: 100%
  Ki: 5.2 µM
  Inhibition Type: Mixed
  IC50: 7.5 µM
  Vmax: 8.8 µmol/min/mg
  α: 1.4
  Km: 6.7 mM

## O=C1COc2cc(O)ccc21 [6-hydroxy-2,3-dihydrobenzo[b]furan-3-one]
Table S1, 200 µM compound
  % Inhibition (200 µM): 37%

## O=C(O)C=CC(=O)Nc1ccc(N2CCCCCC2)c(NC(=O)C=CC(=O)O)c1 [4-{2-(1-azepanyl)-5-[(4-hydroxy-4-oxo-2-butenoyl)amino]anilino}-4-oxo-2-butenoic acid]
Table S1, 200 µM compound
  % Inhibition (200 µM): 58%

## CCCCCc1ccc(S(=O)(=O)Nc2ncccc2OCc2cc(F)cc(F)c2)cc1 [Compound 8, N-{3-[(3,5-difluorobenzyl)oxy]pyridin-2-yl}-4-pentylbenzenesulfonamide]
[1]
  inhibition at 200 µM: 74%
Table S1, 200 µM compound
  inhibition at 200 µM: 64%

## CSc1nc2cc(C(=O)Nc3nc4cc(Oc5cccc(Cl)c5Cl)c(Cl)cc4[nH]3)ccc2n1C [N-[6-chloro-5-(2,3-dichlorophenoxy)-1H-benzimidazol-2-yl]-1-methyl-2-(methylsulfanyl)-1H-benzimidazole-5-carboxamide]
Table S1, 200 µM compound
  % Inhibition (200 µM): 42%

## O=C(CSc1nc2cc(Oc3cccc4ccccc34)c(Cl)cc2[nH]1)Nc1nccs1 [Compound 2, 2-[6-Chloro-5-(1-naphthalyloxy)-1H-benzimidazol-2-yl]thio-N-(thiazol-2-yl)acetamide]
[1]
  inhibition at 200 µM: 99%
  Ki: 4.2 µM
  Inhibition Type: Mixed
  IC50: 8.4 µM
  Vmax: 16 µmol/min/mg
  α: 2.9
  Km: 6.8 mM

## N#Cc1ccc(-c2c(NC(=O)NS(=O)(=O)c3ccccc3Cl)oc(-c3ccco3)c2C#N)cc1 [2-[({[(2-chlorophenyl)sulphonyl]amino}carbonyl)amino]-4-cyano-3-(4-cyanophenyl)-5-(2-furyl)furan]
Table S1, 200 µM compound
  % Inhibition (200 µM): 64%

## Cn1c(SCC(=O)Nc2nccs2)nc2cc(Cl)c(Oc3cccc4ccccc34)cc21 [2-({5-chloro-1-methyl-6-[(naphthalen-1-yl)oxy]-1H-benzimidazol-2-yl}sulfanyl)-N-(1,3-thiazol-2-yl)acetamide]
  % Inhibition: 63%

## O=C(O)c1ccc2[nH]c3c(c2c1)CCCC3 [6,7,8,9-Tetrahydro-5h-carbazole-3-carboxylic acid]
Table S1, 200 µM compound
  % Inhibition (200 µM): 32%

## O=C(Nc1ccc(COc2ccccc2)cc1)Oc1ccccc1N1CCOCC1 [2-morpholinophenyl N-[4-(phenoxymethyl)phenyl]carbamate]
Table S1, 200 µM compound
  % Inhibition (200 µM): 63%

## CSc1nc2cc(C(=O)N/N=C/c3ccc([N+](=O)[O-])o3)ccc2[nH]1 [2-(methylsulfanyl)-N'-[(E)-(5-nitrofuran-2-yl)methylidene]-1H-benzimidazole-5-carbohydrazide]
  % Inhibition: 50%

## O=C(CSc1nnc(-c2cc(OCC(F)(F)F)ccc2OCC(F)(F)F)o1)c1ccccc1 [2-({5-[2,5-di(2,2,2-trifluoroethoxy)phenyl]-1,3,4-oxadiazol-2-yl}thio)-1-phenylethan-1-one]
Table S1, 200 µM compound
  % Inhibition (200 µM): 64%

## Cn1c(SCC(=O)Nc2nccs2)nc2cc(Oc3cccc4ccccc34)c(Cl)cc21 [2-({6-chloro-1-methyl-5-[(naphthalen-1-yl)oxy]-1H-benzimidazol-2-yl}sulfanyl)-N-(1,3-thiazol-2-yl)acetamide]
Table S1, 200 µM compound
  % Inhibition (200 µM): 54%

## Cc1ccc(S(=O)(=O)CCSc2n[nH]c(=O)n2-c2ccc(OCc3ccccc3)cc2)cc1 [4-[4-(benzyloxy)phenyl]-5-({2-[(4-methylphenyl)sulfonyl]ethyl}sulfanyl)-2,4-dihydro-3H-1,2,4-triazol-3-one]
Table S1, 200 µM compound
  % Inhibition (200 µM): 42%

## O=C(Nc1nc2cc(Oc3cccc(Cl)c3Cl)c(Cl)cc2[nH]1)C(F)(F)F [Compound 3, N-[6-Chloro-5-(2,3-dichlorophenoxy)-1H-benzimidazol-2-yl]-2,2,2-trifluoroacetamide]
[1]
  inhibition at 200 µM: 92%
  Ki: 41.3 µM
  Inhibition Type: Mixed
  IC50: 31.3 µM
  Vmax: 10 µmol/min/mg
  α: 3.3
  Km: 4.1 mM

## OCc1ccccc1N1CCOCC1 [(2-morpholinophenyl)methanol]
Table S1, 200 µM compound
  inhibition at 200 µM: 44%

## CN(C)S(=O)(=O)Oc1ccc(-c2noc(-c3ccc(OC(F)(F)F)cc3)n2)cc1 [N,N-dimethyl(4-{5-[4-(trifluoromethoxy)phenyl]-1,2,4-oxadiazol-3-yl}phenyl)sulfamate]
Table S1, 200 µM compound
  % Inhibition (200 µM): 38%

## Cn1c(SCCn2ccnc2)nc2cc(Cl)ccc21 [5-chloro-2-{[2-(1H-imidazol-1-yl)ethyl]sulfanyl}-1-methyl-1H-benzimidazole]
Table S1, 200 µM compound
  % Inhibition (200 µM): 42%

## O=C(CSc1nnnn1-c1ccc(O)cc1)c1ccc2c(c1)OCO2 [Compound 4, 1-(1,3-benzodioxol-5-yl)-2-{[1-(4-hydroxyphenyl)-1H-1,2,3,4-tetraazol-5-yl]sulfanyl}-1-ethanone]
[1]
  inhibition at 200 µM: 88%

## COC(=O)c1cc2nc(SCC(=O)Nc3ncc([N+](=O)[O-])s3)[nH]c2cc1Cl [methyl 6-chloro-2-({2-[(5-nitro-1,3-thiazol-2-yl)amino]-2-oxoethyl}sulfanyl)-1H-benzimidazole-5-carboxylate]
Table S1, 200 µM compound
  % Inhibition (200 µM): 63%
